pIC50: −log10 of the molar value. The source made the active and inactive calls. The calls are words filed in the database; no cut-off is given here.
Experiments:
SW620/AD300 [1] = assay: Induction of doxorubicin induced apoptosis in human SW620/AD300 cells assessed as necrotic cells at 5 uM incubated for 48 hrs in presence of doxorubicin by annexin V-FITC and PI staining based flow cytometry analysis (reference value: 0.59%); format: functional
SW620/AD300 [2] = assay: Reversal of doxorubicin-induced multidrug resistance in human SW620/AD300 cells measured after 48 hrs by CCK-8 method; format: functional, cell-based; settings: SW620/AD300, 48 h
SW-620 [3] = assay: Reversal fold, ratio of Doxorubicin IC50 to test compound IC50 for reversal of doxorubicin-induced multi-drug resistance in human SW620 cells measured after 48 hrs by CCK-8 method; format: functional
[4] = target: ATP-dependent translocase ABCB1 (Homo sapiens, UniProt P08183); assay: Inhibition of P-gp efflux in human SW620/AD300 cells assessed as increase in accumulation of Rh123 by measuring fluorescence intensity at 5.0 uM incubated for 4 hrs followed by Rh123 addition measured after 30 mins by flow cytometric analysis; format: cell-based; settings: sw620/ad300, 4.5 h
SW-620 [5] = assay: Reversal of doxorubicin-induced multidrug resistance in human SW620 cells measured after 48 hrs by CCK-8 method; format: functional, cell-based; settings: SW-620, 48 h
SW620/AD300 [6] = assay: Induction of doxorubicin induced apoptosis in human SW620/AD300 cells assessed as late apoptotic cells at 5 uM incubated for 48 hrs in presence of doxorubicin by annexin V-FITC and PI staining based flow cytometry analysis (reference value: 2.07%); format: functional
SW620/AD300 [7] = assay: Cytotoxicity against human overexpressing P-gp SW620/AD300 cells assessed as cell mortality rate at 5 uM measured after 48 hrs by CCK-8 method relative to control; format: functional
SW620/AD300 [8] = assay: Induction of doxorubicin induced apoptosis in human SW620/AD300 cells assessed as early apoptotic cells at 5 uM incubated for 48 hrs in presence of doxorubicin by annexin V-FITC and PI staining based flow cytometry analysis (reference value: 4.55%); format: functional
SW620/AD300 [9] = assay: Induction of doxorubicin induced apoptosis in human SW620/AD300 cells assessed as viable cells at 5 uM incubated for 48 hrs in presence of doxorubicin by annexin V-FITC and PI staining based flow cytometry analysis (reference value: 92.8%); format: functional; settings: read-out: Activity
[10] = Octanol/water partition coefficient, log P of the compound; format: physicochemical
SW620/AD300 [11] = assay: Reversal fold, ratio of Doxorubicin IC50 to test compound IC50 for reversal of doxorubicin-induced multi-drug resistance in human SW620/AD300 cells measured after 48 hrs by CCK-8 method; format: functional
SW-620 [12] = assay: Cytotoxicity against human SW620 cells assessed as cell mortality rate at 5 uM measured after 48 hrs by CCK-8 method relative to control; format: functional
SW620/AD300 [13] = assay: Induction of doxorubicin induced apoptosis in human SW620/AD300 cells assessed as late apoptotic cells at 2.5 uM incubated for 48 hrs in presence of doxorubicin by annexin V-FITC and PI staining based flow cytometry analysis (reference value: 2.07%); format: functional
SW620/AD300 [14] = assay: Downregulation of P-gp expression level in human SW620/AD300 cells at 2 to 5 uM measured after 24 hrs by qPCR analysis; format: functional, cell-based; settings: dose 2-5 µM
SW620/AD300 [15] = assay: Induction of doxorubicin induced apoptosis in human SW620/AD300 cells assessed as early apoptotic cells at 2.5 uM incubated for 48 hrs in presence of doxorubicin by annexin V-FITC and PI staining based flow cytometry analysis (reference value: 4.55%); format: functional
SW620/AD300 [16] = assay: Induction of doxorubicin induced apoptosis in human SW620/AD300 cells assessed as viable cells at 2.5 uM incubated for 48 hrs in presence of doxorubicin by annexin V-FITC and PI staining based flow cytometry analysis (reference value: 92.8%); format: functional; settings: read-out: Activity
SW620/AD300 [17] = assay: Downregulation of P-gp expression level in human SW620/AD300 cells at 5 to 10 uM measured after 24 hrs by Western blot analysis; format: functional, cell-based; settings: dose 5-10 µM
SW620/AD300 [18] = assay: Downregulation of P-gp expression level in human SW620/AD300 cells at upto 50 uM measured after 24 hrs by Western blot analysis; format: functional, cell-based
SW620/AD300 [19] = assay: Induction of doxorubicin induced apoptosis in human SW620/AD300 cells assessed as necrotic cells at 2.5 uM incubated for 48 hrs in presence of doxorubicin by annexin V-FITC and PI staining based flow cytometry analysis (reference value: 0.59%); format: functional

ATP-dependent translocase ABCB1, sequence (P08183 whole entry): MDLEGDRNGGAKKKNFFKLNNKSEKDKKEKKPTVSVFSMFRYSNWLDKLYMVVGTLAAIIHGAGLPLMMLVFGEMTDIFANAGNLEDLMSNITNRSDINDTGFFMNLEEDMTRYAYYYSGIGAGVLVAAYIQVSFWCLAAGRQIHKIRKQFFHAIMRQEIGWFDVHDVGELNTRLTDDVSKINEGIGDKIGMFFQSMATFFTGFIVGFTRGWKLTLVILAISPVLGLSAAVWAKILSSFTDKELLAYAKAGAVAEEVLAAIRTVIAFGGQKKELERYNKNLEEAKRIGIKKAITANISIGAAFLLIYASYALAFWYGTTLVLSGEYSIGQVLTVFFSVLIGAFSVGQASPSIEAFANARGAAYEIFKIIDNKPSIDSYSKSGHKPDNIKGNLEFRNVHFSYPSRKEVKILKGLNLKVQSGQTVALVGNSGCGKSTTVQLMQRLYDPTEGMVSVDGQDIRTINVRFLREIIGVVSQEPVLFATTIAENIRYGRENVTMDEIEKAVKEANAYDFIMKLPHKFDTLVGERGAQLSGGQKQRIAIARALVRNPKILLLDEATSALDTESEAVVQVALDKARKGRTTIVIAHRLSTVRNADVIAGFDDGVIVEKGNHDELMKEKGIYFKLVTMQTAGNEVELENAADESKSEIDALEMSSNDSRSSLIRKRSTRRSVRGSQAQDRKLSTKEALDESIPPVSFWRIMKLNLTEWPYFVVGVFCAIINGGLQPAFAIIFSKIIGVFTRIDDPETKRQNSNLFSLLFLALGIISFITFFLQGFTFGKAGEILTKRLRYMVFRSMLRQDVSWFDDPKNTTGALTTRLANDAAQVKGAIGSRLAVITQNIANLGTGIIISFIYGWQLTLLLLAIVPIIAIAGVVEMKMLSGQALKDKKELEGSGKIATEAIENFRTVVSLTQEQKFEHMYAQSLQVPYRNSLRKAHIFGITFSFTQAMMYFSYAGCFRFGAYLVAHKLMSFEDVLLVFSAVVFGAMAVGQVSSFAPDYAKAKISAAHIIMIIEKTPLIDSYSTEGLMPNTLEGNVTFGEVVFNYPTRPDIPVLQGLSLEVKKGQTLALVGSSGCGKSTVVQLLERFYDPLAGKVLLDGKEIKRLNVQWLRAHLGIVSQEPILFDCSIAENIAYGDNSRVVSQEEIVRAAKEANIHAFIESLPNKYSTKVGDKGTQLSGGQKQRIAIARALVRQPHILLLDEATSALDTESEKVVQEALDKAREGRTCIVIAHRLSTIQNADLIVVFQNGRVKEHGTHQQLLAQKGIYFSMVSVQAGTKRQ

Compound: COc1ccc(C(=O)Nc2ccccc2C(=O)Nc2ccc(CCN3CCc4cc(OC)c(OC)cc4C3)cc2)cc1OC
- Activity (SW620/AD300 [1]): 0.56%
- pIC50 (SW620/AD300 [2]): 6.65
- Ratio IC50 (SW-620 [3]): 4
- inhibition (INH) [4]: Active
- pIC50 (SW-620 [5]): 7.20
- Activity (SW620/AD300 [6]): 3.62%
- mortality at 5 µM (SW620/AD300 [7]): 9%
- Activity (SW620/AD300 [8]): 38.5%
- viability at 5 µM (SW620/AD300 [9]): 57.3%
- logP [10]: 5.85
- Ratio IC50 (SW620/AD300 [11]): 45.9
- mortality at 5 µM (SW-620 [12]): 9%

Compound: COc1cc2c(cc1OC)CN(CCc1ccc(NC(=O)c3ccccc3NC(=O)c3ccc(C(=O)N4CCN(C(=O)CC56CC7CC(CC(C7)C5)C6)CC4)cc3)cc1)CC2
- Activity (SW620/AD300 [13]): 1.16%
- Activity (SW620/AD300 [14]): inactive
- Activity (SW620/AD300 [15]): 50.8%
- Activity (SW620/AD300 [1]): 1.17%
- pIC50 (SW620/AD300 [2]): 6.87
- viability at 2.5 µM (SW620/AD300 [16]): 47.8%
- Activity (SW620/AD300 [17]): inactive
- Ratio IC50 (SW-620 [3]): 1.9
- inhibition (INH) [4]: Active
- pIC50 (SW-620 [5]): 6.86
- Activity (SW620/AD300 [6]): 5.15%
- mortality at 5 µM (SW620/AD300 [7]): < 2%
- Activity (SW620/AD300 [8]): 52.1%
- viability at 5 µM (SW620/AD300 [9]): 42.1%
- logP [10]: 8.04
- Ratio IC50 (SW620/AD300 [11]): 78.6
- Activity (SW620/AD300 [18]): inactive
- mortality at 5 µM (SW-620 [12]): < 2%
- Activity (SW620/AD300 [19]): 0.22%

Compound: COc1cc2c(cc1OC)CN(CCc1ccc(NC(=O)c3ccccc3NC(=O)c3ccc(C(=O)O)cc3)cc1)CC2
- pIC50 (SW620/AD300 [2]): 5.12
- Ratio IC50 (SW-620 [3]): 0.7
- pIC50 (SW-620 [5]): 6.42
- logP [10]: 3.16
- Ratio IC50 (SW620/AD300 [11]): 1.4

Compound: COc1cc2c(cc1OC)CN(CCc1ccc(NC(=O)c3ccccc3NC(=O)CC34CC5CC(CC(C5)C3)C4)cc1)CC2
- Activity (SW620/AD300 [13]): 3.15%
- Activity (SW620/AD300 [14]): inactive
- Activity (SW620/AD300 [15]): 17.7%
- Activity (SW620/AD300 [1]): 1.13%
- pIC50 (SW620/AD300 [2]): 6.69
- viability at 2.5 µM (SW620/AD300 [16]): 78.9%
- Activity (SW620/AD300 [17]): inactive
- Ratio IC50 (SW-620 [3]): 0.9
- inhibition (INH) [4]: Active
- pIC50 (SW-620 [5]): 6.55
- Activity (SW620/AD300 [6]): 3.93%
- mortality at 5 µM (SW620/AD300 [7]): < 2%
- Activity (SW620/AD300 [8]): 24.7%
- viability at 5 µM (SW620/AD300 [9]): 70.2%
- logP [10]: 7.65
- Ratio IC50 (SW620/AD300 [11]): 51.4
- Activity (SW620/AD300 [18]): inactive
- mortality at 5 µM (SW-620 [12]): < 2%
- Activity (SW620/AD300 [19]): 0.29%

Compound: COc1cc2c(cc1OC)CN(CCc1ccc(NC(=O)c3ccccc3NC(=O)c3ccc(NC(=O)CC45CC6CC(CC(C6)C4)C5)cc3)cc1)CC2
- pIC50 (SW620/AD300 [2]): 6.30
- Ratio IC50 (SW-620 [3]): 0.5
- pIC50 (SW-620 [5]): 6.31
- mortality at 5 µM (SW620/AD300 [7]): < 6%
- logP [10]: 8.48
- Ratio IC50 (SW620/AD300 [11]): 21.1
- mortality at 5 µM (SW-620 [12]): < 6%

Compound: COc1cc2c(cc1OC)CN(CCc1ccc(NC(=O)c3ccccc3NC(=O)CCNC(=O)CC34CC5CC(CC(C5)C3)C4)cc1)CC2
- pIC50 (SW620/AD300 [2]): 6.42
- Ratio IC50 (SW-620 [3]): 0.7
- pIC50 (SW-620 [5]): 6.47
- mortality at 5 µM (SW620/AD300 [7]): < 6%
- logP [10]: 6.89
- Ratio IC50 (SW620/AD300 [11]): 27.7
- mortality at 5 µM (SW-620 [12]): < 6%

Compound: COc1cc2c(cc1OC)CN(CCc1ccc(NC(=O)c3ccccc3NC(=O)c3ccccc3N)cc1)CC2
- pIC50 (SW620/AD300 [2]): 6.14
- Ratio IC50 (SW-620 [3]): 1.1
- pIC50 (SW-620 [5]): 6.64
- logP [10]: 5.78
- Ratio IC50 (SW620/AD300 [11]): 14.6

Compound: COc1ccc(CCN(C)CCCC(C#N)(c2ccc(OC)c(OC)c2)C(C)C)cc1OC (stereo not given) [VERAPAMIL]
- pIC50 (SW-620 [5]): 6.85

Compound: COc1cc2c(cc1OC)CN(CCc1ccc(NC(=O)c3ccccc3NC(=O)c3ccc(C(=O)NCCNC(=O)CC45CC6CC(CC(C6)C4)C5)cc3)cc1)CC2
- pIC50 (SW620/AD300 [2]): 6.09
- Ratio IC50 (SW-620 [3]): 1.8
- pIC50 (SW-620 [5]): 6.86
- mortality at 5 µM (SW620/AD300 [7]): < 6%
- logP [10]: 7.9
- Ratio IC50 (SW620/AD300 [11]): 13
- mortality at 5 µM (SW-620 [12]): < 6%

Compound: COc1cccc2c1C(=O)c1c(O)c3c(c(O)c1C2=O)C[C@@](O)(C(=O)CO)C[C@@H]3O[C@H]1C[C@H](N)[C@H](O)[C@H](C)O1 [DOXORUBICIN]
- pIC50 (SW620/AD300 [2]): 4.98
- Ratio IC50 (SW-620 [3]): 1
- pIC50 (SW-620 [5]): 6.59
- Ratio IC50 (SW620/AD300 [11]): 1

Compound: COC(=O)c1ccc(C(=O)Nc2ccccc2C(=O)Nc2ccc(CCN3CCc4cc(OC)c(OC)cc4C3)cc2)cc1
- pIC50 (SW620/AD300 [2]): 6.00
- Ratio IC50 (SW-620 [3]): 1.9
- pIC50 (SW-620 [5]): 6.87
- logP [10]: 5.77
- Ratio IC50 (SW620/AD300 [11]): 10.4

Compound: COc1cc2c(cc1OC)CN(CCc1ccc(NC(=O)c3ccccc3NC(=O)c3ccc(N)cc3)cc1)CC2
- pIC50 (SW620/AD300 [2]): 6.18
- Ratio IC50 (SW-620 [3]): 1.5
- pIC50 (SW-620 [5]): 6.76
- logP [10]: 5.23
- Ratio IC50 (SW620/AD300 [11]): 15.9

Compound: COc1cc2c(cc1OC)CN(CCc1ccc(NC(=O)c3ccccc3NC(=O)C34CC5CC(CC(C5)C3)C4)cc1)CC2
- Activity (SW620/AD300 [13]): 0.96%
- Activity (SW620/AD300 [14]): inactive
- Activity (SW620/AD300 [15]): 22.7%
- Activity (SW620/AD300 [1]): 0.29%
- pIC50 (SW620/AD300 [2]): 6.17
- viability at 2.5 µM (SW620/AD300 [16]): 76.3%
- Activity (SW620/AD300 [17]): inactive
- Ratio IC50 (SW-620 [3]): 1.8
- inhibition (INH) [4]: Active
- pIC50 (SW-620 [5]): 6.84
- Activity (SW620/AD300 [6]): 4.45%
- mortality at 5 µM (SW620/AD300 [7]): < 2%
- Activity (SW620/AD300 [8]): 36.1%
- viability at 5 µM (SW620/AD300 [9]): 59.2%
- logP [10]: 6.83
- Ratio IC50 (SW620/AD300 [11]): 15.7
- Activity (SW620/AD300 [18]): Active
- mortality at 5 µM (SW-620 [12]): < 2%
- Activity (SW620/AD300 [19]): 0.08%

From ChEMBL document CHEMBL5376020, “Synthesis and evaluation of WK-X-34 derivatives as P-glycoprotein (P-gp/ABCB1) inhibitors for reversing multidrug resistance” (RSC Med Chem, 2024)
